Drawing on patent US9980945B2, “Benzoisoxazole-substituted compounds as MGLUR4 allosteric potentiators, compositions, and methods of treating neurological dysfunction” (Vanderbilt University, priority 2015, dated 2018), this text covers EC50 for 28 compounds.

Each structure is given as a SMILES string.

For this assay, the target named is mGluR4 (UniProt Q14833). Briefly: mGluR4 potentiation assay (EC50 for potentiation at EC20 agonist; fluorometric plate reader, Ca2+ or thallium dye). As to conditions: potentiation of mGluR4; species of receptor not given. The assay is classed as cell-based. Here is the method: The disclosed compounds and compositions can be evaluated for their ability to act as a potentiator of metabotropic glutamate receptor activity, in particular mGluR4 activity, by any suitable known methodology known in the art. For example, Chinese Hamster Ovary (CHO) cells transacted with human mGluR4 or HEK cells co-transfected with rat mGluR4 and the G-protein regulated Inwardly Rectifying Potassium channel (GIRK) were plated in clear bottom assay plates for assay in a Hamamatsu FDSS Fluorometric Plate Reader. The cells were loaded with either a Ca2+-sensitive fluorescent dye or the thallium responsive dye and the plates were washed and placed into a suitable kinetic plate reader. For human mGluR4 assays, a fluorescence baseline was established for 3-5 seconds, the disclosed compounds were then added to the cells, and the response in cells was measured. Approximately two and a half minutes later, a concentration of mGluR4 orthosteric agonist (e.g. glutamate or L-AP4) eliciting approximately 20% (EC20) of the maximal agonist response was added to the cells, and the response was measured. Two minutes later, a concentration of mGluR4 agonist (e.g. glutamate or L-AP4) eliciting 80% (EC80) of the maximal agonist response was added to the cells, and the response was measured. For rat mGluR4/GIRK experiments, a baseline was established for approximately five seconds, disclosed compounds were added, and either an EC20 or EC80 concentration of agonist was added approximately two and one half minutes later. Potentiation of the agonist response of mGluR4 by the disclosed compounds was observed as an increase in response to the EC20 concentration of agonist in the presence of compound compared to the response to agonist in the absence of compound. Similarly, antagonism of the agonist response of mGluR4 by the disclosed compounds was observed as a decrease in response to the EC80 concentration of agonist in the presence of compound compared to the response to agonist in the absence of compound.
The above described assay operated in two modes. In the first mode, a range of concentrations of the disclosed compounds are added to cells, followed by a single fixed concentration of agonist. If the compound acts as a potentiator, an EC50 so value for potentiation and a maximum extent of potentiation by the compound at this concentration of agonist is determined by non-linear curve fitting. If the compound acts as a noncompetitive antagonist, an IC50 value is determined by non-linear curve fitting. In the second mode, several fixed concentrations of the disclosed compounds are added to various wells on a plate, followed by a range in concentrations of agonist for each concentration of disclosed compound. The EC50 values for the agonist at each concentration of compound are determined by non-linear curve fitting. A decrease in the EC50 value of the agonist with increasing concentrations of the sample compound (a leftward shift of the agonist concentration-response curve) is an indication of the degree of mGluR4 potentiation at a given concentration of the sample compound. A decrease in the maximal response of the agonist with increasing concentrations of the sample compounds, with or without a rightward shift in agonist potency, is an indication of the degree of noncompetitive antagonism at mGluR4. The second mode also indicates whether the sample compounds also affect the maximum response to mGluR4 to agonists.
For orientation: EC50 means the concentration giving half of the maximal effect. Regarding `COc1ccc(Cc2noc3cc(Nc4n[nH]c5cccnc45)ccc23)cn1` [Example 32, 3-((6-methoxypyridin-3-yl)methyl)-N-(1H-pyrazolo[4,3-b]pyridin-3-yl)benzo[d]isoxazol-6-amine], the EC50 was found to be 96 nM.

For the compound `O=C(Cc1noc2cc(Nc3n[nH]c4ncccc34)ccc12)NC1CC(F)(F)C1` [Example 142, N-(33-difluorocyclobutyl)-2-[6-(1H pyrazolo[3,4-b]pyridin-3-ylamino)-1,2-benzoxazol-3-yl]acetamide], the EC50 is over 10000 nM.

As for `FCCc1noc2cc(Nc3n[nH]c4cccnc34)ccc12` [Example 177, 3-(2-fluoroethyl)-N-(1H-pyrazolo[4,3-b]pyridin-3-yl)-1,2-benzoxazol-6-amine], the EC50 is 890 nM.

`c1cc2oncc2cc1Nc1n[nH]c2c1CCCC2` [Example 21, N-(4,5,6,7-tetrahydro-1H-indazol-3-yl)benzo[d]isoxazol-5-amine]: the EC50 was over 10000 nM.

With `CC(C)(C)Cc1noc2cc(Nc3n[nH]c4cccnc34)c(F)cc12` [Example 167, 3-(2,2-dimethylpropyl)-5-fluoro-N-(1H-pyrazolo[4,3-b]pyridin-3-yl)-1,2-benzoxazol-6-amine], the EC50 is over 30000 nM.

In the case of `CC(C)Cc1noc2cc(Nc3n[nH]c4nccnc34)ccc12` [Example 13, 3-isobutyl-N-(1H-pyrazolo[3,4-b]pyrazin-3-yl)benzo[d]isoxazol-6-amine], the EC50 came to 849 nM.

On to `CCCCC(F)(F)c1noc2cc(Nc3n[nH]c4cccnc34)ccc12` [Example 136, 3-(1,1-difluoropentyl)-N-(1H-pyrazolo[4,3-b]pyridin-3-yl)-1,2-benzoxazol-6-amine], for which the EC50 is over 10000 nM.

Consider `c1cnc2c(Nc3ccc4c(OCC5CCCCO5)noc4c3)n[nH]c2c1` (stereo not shown) [Example 27, N-(1H-pyrazolo[4,3-b]pyridin-3-yl)-3-((tetrahydro-2H-pyran-2-yl)methoxy)benzo[d]isoxazole-6-amine], for which the EC50 stood at 1280 nM.

On to `c1cncc(OCc2noc3cc(Nc4n[nH]c5cccnc45)ccc23)c1` [Example 169, N-(1H-pyrazolo[4,3-b]pyridin-3-yl)-3-(3-pyridyloxymethyl)-1,2-benzoxazol-6-amine], for which the EC50 was over 30000 nM.

As to `CC(C)(C)CNC(c1noc2cc(Nc3n[nH]c4cccnc34)ccc12)C(F)(F)F` (stereo not shown) [Example 181, 3-[1-(2,2-dimethylpropylamino)-2,2,2-trifluoro-ethyl]-N-(1H-pyrazolo[4,3-b]pyridin-3-yl)-1,2-benzoxazol-6-amine; 2,2,2-trifluoroacetic acid], the concentration giving a half-maximal response (EC50) is 1500 nM.

On to `CCC(CC)c1noc2cc(Nc3n[nH]c4ncccc34)ccc12` [Example 84, 3-(1-ethylpropyl)-N-(1H-pyrazolo[3,4-b]pyridin-3-yl)-1,2-benzoxazol-6-amine], for which the EC50 turned out to be 522 nM.

For the compound `Cc1noc2ccc(Nc3n[nH]c4nccnc34)cc12` [Example 23, 3-methyl-N-(1H-pyrazolo[3,4-b]pyrazin-3-yl)benzo[d]isoxazol-5-amine], the EC50 amounted to 124 nM.

`CC(C)c1noc2cc(Nc3n[nH]c4ncccc34)ccc12` [Example 154, 3-isopropyl-N-(1H-pyrazolo[3,4-b]pyridin-3-yl)-1,2-benzoxazol-6-amine]: the EC50 was found to be 586 nM.

As to `CCC(CC)c1noc2cc(Nc3n[nH]c4cccnc34)ccc12` [Example 85, 3-(1-ethylpropyl)-N-(1H-pyrazolo[4,3-b]pyridin-3-yl)-1,2-benzoxazol-6-amine], the EC50 amounted to 132 nM.

Consider `CCCCC(F)c1noc2cc(Nc3n[nH]c4cccnc34)ccc12` (stereo not shown) [Example 147, 3-(1-fluoropentyl)-N-(1H-pyrazolo[4,3-b]pyridin-3-yl)-1H-benzoxazol-6-amine], for which the EC50 stood at 1490 nM.

Take `CCC(F)(F)c1noc2cc(Nc3n[nH]c4cccnc34)ccc12` [Example 179, 3-(1,1-difluoropropyl)-N-(1H-pyrazolo[4,3-b]pyridin-3-yl)-1,2-benzoxazol-6-amine]: the EC50 worked out at 1990 nM.

As to `CCCC(C)c1noc2cc(Nc3n[nH]c4cccnc34)ccc12` (stereo not shown) [Example 94, 3-(1-methylbutyl)-N-(1H-pyrazolo[4,3-b]pyridin-3-yl)-1,2-benzoxazol-6-amine], the EC50 came out at 118 nM.

For `CCCCNC(c1noc2cc(Nc3n[nH]c4cccnc34)ccc12)C(F)(F)F` (stereo not shown) [Example 180, 3-[1-(butylamino)-2,2,2-trifluoro-ethyl]-N-(1H-pyrazolo[4,3-b]pyridin-3-yl)-1,2-benzoxazol-6-amine; 2,2,2-trifluoroacetic acid], the EC50 turned out to be 810 nM.

As for `CC(C)(C)Cc1noc2cc(Nc3n[nH]c4ccccc34)ccc12` [Example 17, N-(1H-indazol-3-yl)-3-neopentylbenzo[d]isoxazol-6-amine], the EC50 was over 10000 nM.

Regarding `c1cnc2c(Nc3ccc4c(C5CCCC5)noc4c3)n[nH]c2n1` [Example 7, 3-cydopentyl-N-(1H-pyrazolo[3,4-b]pyrazin-3-yl)benzo[d]isoxazol-6-amine], the EC50 was 527 nM.

Consider `Cc1noc2ccc(Nc3n[nH]c4ncccc34)cc12` [Example 24, 3-methyl-N-(1H-pyrazolo[3,4-b]pyridin-3-yl)benzo[d]isoxazol-5-amine], for which the EC50 is 297 nM.

As to `CN(Cc1cccnc1)C(=O)Cc1noc2cc(Nc3n[nH]c4cccnc34)ccc12` [Example 157, N-methyl-2-[6-(1H-pyrazolo[4,3-b]pyridin-3-ylamino)-1,2-benzoxazol-3-yl]-N-(3-pyridylmethyl)acetamide], the EC50 came out at 1750 nM.

Turning to `O=C(Cc1noc2cc(Nc3n[nH]c4cccnc34)ccc12)NC1CC(F)(F)C1` [Example 140, N-(3,3-difluorocyclobutyl)-2-[6-(1H-pyrazolo[4,3-b]pyridin-3-ylamino)-1,2-benzoxazol-3-yl]acetamide], the EC50 was over 10000 nM.

For the compound `Cc1noc2c(F)cc(Nc3n[nH]c4nccnc34)cc12` [Example 106, 7-fluoro-3-methyl-N-(1H-pyrazolo[3,4-b]pyrazin-3-yl)-1,2-benzoxazol-5-amine], the EC50 was 23.1 nM.

Regarding `CC(c1noc2cc(Nc3n[nH]c4cccnc34)ccc12)C(F)F` (stereo not shown) [Example 178, 3-(2,2-difluoro-1-methyl-ethyl)-N-(1H-pyrazolo[4,3-b]pyridin-3-yl)-1,2-benzoxazol-6-amine], the EC50 stood at 1710 nM.

In the case of `O=C(Cc1noc2cc(Nc3n[nH]c4cccnc34)ccc12)N1CC(F)(F)C1` [Example 144, 1-(3,3-difluoroazetidin-1-yl)-2-[6-(1H-pyrazolo[4,3-b]pyridin-3-ylamino)-1,2-benzoxazol-3-yl]ethanone], the EC50 came out at 2580 nM.

`O=C(Cc1noc2cc(Nc3n[nH]c4nccnc34)ccc12)NC1CC(F)(F)C1` [Example 141, N-(3,3-difluorocyclobutyl)-2-[6-(1H-pyrazolo[3,4-b]pyrazin-3-ylamino)-1,2-benzoxazol-3-yl]acetamide]: the concentration for a half-maximal effect (EC50) worked out at 277 nM.

In the case of `Cc1noc2ccc(Nc3n[nH]c4ncc(F)cc34)cc12` [Example 104, N-(5-fluoro-1H-pyrazo!o[3,4-b]pyridin-3-yl)-3-methyl-1,2-benzoxazol-5-amine], the EC50 is 216 nM.
